{
  "source": "paper PMC6949950",
  "about": "“Screening Mold Colonies by Using Two Toxicity Assays Revealed Indoor Strains of Aspergillus calidoustus Producing Ophiobolins G and K” (Toxins, 2019)",
  "key": {"boar spermatozoa [1]": {"test_system": "boar spermatozoa", "experiment": "cells", "format": "cell-based", "conditions": "for EC50: Spermatozoa"}, "boar spermatozoa [2]": {"test_system": "boar spermatozoa", "experiment": "cells", "format": "cell-based", "conditions": "for EC50: Spermatozoa, 24 h, read-out: EC50 SMID 1 day"}, "[3]": {"test_system": "porcine kidney PK-15 cells", "experiment": "cells", "format": "cell-based", "conditions": "for EC50: Sus scrofa, read-out: EC50 ICP 2 days"}, "M. circinelloides": {"test_system": "M. circinelloides", "parameters": "method as in doi:10.1211/146080800128736312, PMID 21054501, PMID 22130129, PMID 23538442", "conditions": "cited from earlier work"}, "[4]": {"conditions": "boar sperm, exposure 0.5–1 h, twofold dilutions, three measurements within one dilution step"}, "[5]": {"conditions": "boar sperm, exposure 1–2 days, twofold dilutions"}, "[6]": {"conditions": "boar sperm, exposure 1 day, SD between three measurements < ± 35%"}, "[7]": {"conditions": "PK-15 cells, exposure 2 days, SD between three measurements < ± 35%"}, "[8]": {"conditions": "PK-15, 48 h, PK-15 cells, exposure 2 days, SD between three measurements < ± 35%"}, "[9]": {"conditions": "boar sperm, exposure 0.5–1 h, twofold dilutions, three measurements within one dilution step, read-out: EC50 BSMI 0.5–1 h"}, "[10]": {"conditions": "boar sperm, exposure 1–2 days, twofold dilutions, read-out: EC50 BSMI 1–2 days"}},
  "note": "Read-outs that look alike come from different tables or passages of the source.",
  "data": [
    {"compound": "CC1(C)C=Cc2c(ccc3c2[N+]([O-])=C2C(C)(C)[C@@H]4CC56CCCN5C(=O)[C@]4(NC6=O)[C@H]4N5C(=O)[C@@]67CCCN6C(=O)[C@@]56[C@H](c5c(n(O)c8c9c(ccc58)OC(C)(C)C=C9)C(C)(C)[C@@H]6C7)[C@]234)O1", "note": "[Stephacidin B]", "values": [
      {"measurement": "EC50 BSMI 0.5–1 h", "setting": "boar spermatozoa [1]; [4]", "result": 0.5, "unit": "µg/mL"},
      {"measurement": "EC50 BSMI 1–2 days", "setting": "boar spermatozoa [1]; [5]", "result": 0.2, "unit": "µg/mL"},
      {"measurement": "EC50 SMID 1 day", "setting": "boar spermatozoa [2]; [6]", "result": ">2", "unit": "µg/mL"},
      {"measurement": "EC50 ICP 2 days", "setting": "[3]; [7]", "result": 0.2, "unit": "µg/mL"}
    ]},
    {"compound": "Alamethicin", "values": [
      {"measurement": "EC50 BSMI 0.5–1 h", "setting": "boar spermatozoa [1]; [4]", "result": 5, "unit": "µg/mL"},
      {"measurement": "EC50 BSMI 1–2 days", "setting": "boar spermatozoa [1]; [5]", "result": 0.2, "unit": "µg/mL"},
      {"measurement": "EC50 SMID 1 day", "setting": "boar spermatozoa [2]; [6]", "result": 0.2, "unit": "µg/mL"},
      {"measurement": "EC50 ICP 2 days", "setting": "[3]; [7]", "result": 8, "unit": "µg/mL"}
    ]},
    {"compound": "Oc1cc(Cl)ccc1Oc1ccc(Cl)cc1Cl", "note": "[triclosan]", "values": [
      {"measurement": "EC50", "setting": "boar spermatozoa [2]; [6]", "result": 2, "unit": "µg/mL"},
      {"measurement": "EC50", "setting": "[3]; [8]", "result": 9.4, "unit": "µg/mL"}
    ]},
    {"compound": "COc1cc2c(c3oc4cccc(O)c4c(=O)c13)[C@@H]1C=CO[C@@H]1O2", "note": "[Sterigmatocystin]", "values": [
      {"measurement": "EC50 BSMI 0.5–1 h", "setting": "boar spermatozoa [1]", "result": ">100", "unit": "µg/mL"},
      {"measurement": "EC50 BSMI 1–2 days", "setting": "boar spermatozoa [1]", "result": ">20", "unit": "µg/mL"},
      {"measurement": "EC50 SMID 1 day", "setting": "boar spermatozoa [2]", "result": ">20", "unit": "µg/mL"},
      {"measurement": "EC50 ICP 2 days", "setting": "[3]", "result": 0.25, "unit": "µg/mL"},
      {"measurement": "toxicity to proliferating PK-15 cells in the ICP assay", "setting": "[3]", "result": "highly toxic"}
    ]},
    {"compound": "C[C@@H]1Cc2c(Cl)cc(C(=O)N[C@@H](Cc3ccccc3)C(=O)O)c(O)c2C(=O)O1", "note": "[Ochratoxin A]", "values": [
      {"measurement": "EC50", "setting": "boar spermatozoa [1]; [9]", "result": "> 100", "unit": "µg/mL"},
      {"measurement": "EC50", "setting": "boar spermatozoa [1]; [10]", "result": "> 50", "unit": "µg/mL"},
      {"measurement": "EC50", "setting": "boar spermatozoa [2]; [6]", "result": "> 50", "unit": "µg/mL"},
      {"measurement": "EC50", "setting": "[3]; 48 h, PK-15 cells, exposure 2 days, SD between three measurements < ± 35%", "result": "> 50", "unit": "µg/mL"}
    ]},
    {"compound": "CC(C)=C[C@H]1C[C@H](C)[C@]2(CC[C@]3(C)C[C@H]4[C@H](C(=O)C[C@@]4(C)O)/C(C=O)=C\\C[C@H]32)O1", "note": "[Ophiobolin A]", "values": [
      {"measurement": "EC50", "setting": "boar spermatozoa [1]; [9]", "result": 2.5, "unit": "µg/mL"},
      {"measurement": "EC50", "setting": "boar spermatozoa [1]; [10]", "result": 0.25, "unit": "µg/mL"},
      {"measurement": "EC50", "setting": "boar spermatozoa [2]; [6]", "result": 2, "unit": "µg/mL"},
      {"measurement": "EC50 ICP 2 days", "setting": "[3]; [7]", "result": 0.2, "unit": "µg/mL"},
      {"measurement": "treatment concentration at which apoptosis-like cell death process was observed", "setting": "M. circinelloides", "result": 1.6, "unit": "µg/mL"}
    ]},
    {"compound": "CC1(C)C=Cc2c(ccc3c2[N+]([O-])=C2C3=C[C@@]34NC(=O)[C@]5(CCCN5C3=O)C[C@H]4C2(C)C)O1", "note": "[Avrainvillamide]", "values": [
      {"measurement": "EC50", "setting": "boar spermatozoa [1]; [9]", "result": 0.6, "unit": "µg/mL"},
      {"measurement": "EC50", "setting": "boar spermatozoa [1]; [10]", "result": 0.3, "unit": "µg/mL"},
      {"measurement": "EC50", "setting": "boar spermatozoa [2]; [6]", "result": "> 2", "unit": "µg/mL"},
      {"measurement": "EC50", "setting": "[3]; [8]", "result": 0.3, "unit": "µg/mL"}
    ]}
  ]
}
